According to patent US12110286B2, “Benzimidazolone derived inhibitors of BCL6” (Cancer Research Technology Limited, priority 2017, dated 2024):

Experiments:
[1] = biological target: Trx-6×His-BCL6 (human BCL6 BTB domain covering amino-acid sequence 5-129) (Homo sapiens (Human), UniProt P41182); assay: HTRF in vitro assay (BCL6 / BCOR-AF633 peptide); assay type: binding; settings: further generated data; 1 nM Trx-6×His-BCL6, 300 nM BCOR-AF633 peptide, 0.5 nM anti-6×His-Terbium cryptate
Experimental: The % inhibition at each concentration was calculated by normalising FRET ratio to the appropriate high (DMSO with all reagents) and low (DMSO without BCL6) controls.

[2] = biological target: BCL6-NCOR2(SMRT) corepressor protein-protein interaction (Homo sapiens (Human), UniProt P41182); assay: NanoBRET cell assay; assay type: cell-based; settings: further generated data; transfected HEK293T cells, 6 hr; read-out: NanoBRET cell pIC50 (converted)
Experimental: A cellular nano-Bioluminescence Resonance Energy Transfer (nanoBRET) assay (Promega NanoBRET Nano-Glo Detection System, catalogue number N1662) was used to detect inhibition of the BCL6-NCOR2(SMRT) corepressor protein-protein interaction. DNA encoding full length BCL6 and NCOR2 were inserted into pFC32K.NanoLuc and pFC14K.HaloTag vectors (Promega) to produce C-terminal tagged fusion proteins BCL6-nanoLuc and NCOR2-HaloTag, respectively. HEK293T cells were plated (5×10^5) in T75 tissue culture flask and bulk transfected 48 hours later with Fugene 6 (Promega cat. #E2691) reagent and 18 μg total DNA plasmids encoding BCL6-nanoLuc as donor and NCOR2-HaloTag as acceptor, at a donor:acceptor DNA ratio of 1:25. At 24 hr post-transfection, HEK293T cells were collected and stored in liquid nitrogen in 90% FBS (PAN Biotech UK) and 10% DMSO. […] Frozen transfected HEK293T cells were thawed, centrifuged and freezing medium was replaced by phenol red-free OptiMEM+4% FBS (Life Technology). […] Cells were incubated for 6 hr at 37° C./5% C02 then NanoBRET furimazine substrate (Promega) was added to give a final concentration of 10 μM. After a short centrifugation the plates were read on an Envision (Perkin Elmer) plate reader equipped with a LUM/D600 Dual mirror, Lum 450/40 nm bandpass and D605 nm longpass filters, with a 0.2 sec reading to determine the BRET ratio. The % inhibition at each test concentration was calculated by normalising the BRET ratio to the appropriate high and low controls.

Structure (SMILES)	HTRF pIC50 [1]	IC50 [2] [nM]
Cc1cc(C)n(-c2cc(Nc3ccc4c(c3)n(CCC(C)(C)O)c(=O)n4C)c(Cl)cn2)n1 [Example 30a, 5-((5-chloro-2-(3,5-dimethyl-1H-pyrazol-1-yl)pyridin-4-yl)amino)-3-(3-hydroxy-3-methylbutyl)-1-methyl-1,3-dihydro-2H-benzo[d]imidazol-2-one]	6.09	3090
C[C@@H]1CN(c2ncc(Cl)c(Nc3ccc4c(c3)n(CCC(C)(C)O)c(=O)n4C)n2)C[C@H](C)N1C [Example 35l, 5-((5-chloro-2-((3S,5R)-3,4,5-trimethylpiperazin-1-yl)pyrimidin-4-yl)amino)-3-(3-hydroxy-3-methylbutyl)-1-methyl-1,3-dihydro-2H-benzo[d]imidazol-2-one]	6.76	1510
Cn1c(=O)n(CCC(C)(C)O)c2cc(Nc3nc(N4[C@@H]5CCC[C@H]4CC5)ncc3Cl)ccc21 [Example 35m, 5-((2-((1R,5S)-8-azabicyclo[3.2.1]octan-8-yl)-5-chloropyrimidin-4-yl)amino)-3-(3-hydroxy-3-methylbutyl)-1-methyl-1,3-dihydro-2H-benzo[d]imidazol-2-one]	6.81	741
Cn1c(=O)n(CCC(C)(C)O)c2cc(Nc3nc(N4C5CC6CC(C5)CC4C6)ncc3Cl)ccc21 [Example 35t, 5-((2-((1r,3r,5r,7r)-2-azaadamantan-2-yl)-5-chloropyrimidin-4-yl)amino)-3-(3-hydroxy-3-methylbutyl)-1-methyl-1,3-dihydro-2H-benzo[d]imidazol-2-one]	6.46	2340

Results, then the molecule that gave them:

HTRF pIC50 [1]	IC50 [2] [nM]	Structure (SMILES)
6.12	2240	Cn1c(=O)n(CCC(C)(C)O)c2cc(Nc3nc(N4CCC(C(F)(F)F)CC4)ncc3Cl)ccc21 [Example 35g, 5-((5-chloro-2-(4-(trifluoromethyl)piperidin-1-yl)pyrimidin-4-yl)amino)-3-(3-hydroxy-3-methylbutyl)-1-methyl-1,3-dihydro-2H-benzo[d]imidazol-2-one]
6.56	1480	CC(C)(O)CCn1c(=O)n(CCC(C)(C)O)c2cc(Nc3nc(N4CC(C)(C)OC(C)(C)C4)ncc3Cl)ccc21 [Example 35k, 5-((5-chloro-2-(2,2,6,6-tetramethylmorpholino)pyrimidin-4-yl)amino)-1,3-bis(3-hydroxy-3-methylbutyl)-1,3-dihydro-2H-benzo[d]imidazol-2-one]
6.63	1700	CC(C)(O)CCn1c(=O)n(CCC(C)(C)O)c2ncc(Nc3nc(N4CC(C)(C)OC(C)(C)C4)ncc3Cl)cc21 [Example 35q, 6-((5-chloro-2-(2,2,6,6-tetramethylmorpholino)pyrimidin-4-yl)amino)-1,3-bis(3-hydroxy-3-methylbutyl)-1,3-dihydro-2H-imidazo[4,5-b]pyridin-2-one]
6.70	2340	COCC1CCCN(c2ncc(Cl)c(Nc3ccc4c(c3)n(CCC(C)(C)O)c(=O)n4C)n2)C1 (stereo not drawn) [Example 35v, 5-((5-chloro-2-(3-(methoxymethyl)piperidin-1-yl)pyrimidin-4-yl)amino)-3-(3-hydroxy-3-methylbutyl)-1-methyl-1,3-dihydro-2H-benzo[d]imidazol-2-one]
7.01	3160	C[C@@H]1C[C@H](O)CN(c2ncc(Cl)c(Nc3ccc4c(c3)n(CCC(C)(C)O)c(=O)n4C)n2)C1 [Example 35x, 5-((5-chloro-2-((3S,5R)-3-hydroxy-5-methylpiperidin-1-yl)pyrimidin-4-yl)amino)-3-(3-hydroxy-3-methylbutyl)-1-methyl-1,3-dihydro-2H-benzo[d]imidazol-2-one]
